# In patent US9315520B2, “2-amino-6-methyl-4,4a,5,6-tetrahydropyrano[3,4-d][1,3]thiazin-8a(8H)-yl-1,3-thiazol-4-yl amides” (Pfizer Inc., priority 2014, dated 2016):
# Counter-ions that a name gives are not always drawn.
# Target: BACE1 (Homo sapiens (Human), UniProt P56817)
# Assay: BACE1 Cell-Free Assay (fluorescence polarization)
# Assay type: biochemical
# Conditions: geometric mean of 2-4 determinations unless otherwise indicated (b: ≧5; c: single determination); read-out: BACE1 Cell-free Assay IC50
# Text: This assay measures the inhibition of the beta-secretase enzyme as it cleaves a non-native peptide.
# A synthetic APP substrate that can be cleaved by beta-secretase having N-terminal biotin and made fluorescent by the covalent attachment of Oregon Green at the Cys residue is used to assay beta-secretase activity in the presence or absence of the inhibitory compounds. […] The BACE1 enzyme is affinity purified material from conditioned media of CHO-K1 cells that have been transfected with a soluble BACE construct (BACE1deltaTM96His). […] Plates are covered and incubated for 3 hours at 37° C. […] The activity of the beta-secretase enzyme is detected by changes in the fluorescence polarization that occur when the substrate is cleaved by the enzyme.
# Chain of BACE1 (P56817 46-457): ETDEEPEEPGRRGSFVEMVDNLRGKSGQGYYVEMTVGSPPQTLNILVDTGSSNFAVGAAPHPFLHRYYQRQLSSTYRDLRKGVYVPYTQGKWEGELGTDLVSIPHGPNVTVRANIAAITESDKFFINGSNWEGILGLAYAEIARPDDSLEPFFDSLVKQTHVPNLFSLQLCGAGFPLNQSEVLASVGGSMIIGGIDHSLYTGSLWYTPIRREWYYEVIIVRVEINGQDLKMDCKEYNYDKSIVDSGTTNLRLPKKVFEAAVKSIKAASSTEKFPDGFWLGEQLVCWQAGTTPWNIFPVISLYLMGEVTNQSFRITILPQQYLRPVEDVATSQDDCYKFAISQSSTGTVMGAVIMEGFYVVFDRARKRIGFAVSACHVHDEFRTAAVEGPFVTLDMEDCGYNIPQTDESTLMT
row,SMILES,IC50
1,"Cc1nc(OC(F)F)cnc1C(=O)Nc1csc([C@]23CO[C@@H](C)C[C@H]2CSC(N)=N3)n1 [Example 98, N-{2-[(4aR,6S,8aR)-2-amino-6-methyl-4,4a,5,6-tetrahydropyrano[3,4-d][1,3]thiazin-8a(8H)-yl]-1,3-thiazol-4-yl}-5-(difluoromethoxy)-3-methylpyrazine-2-carboxamide]",33 nM
2,"CC(C)Cc1cc(C(=O)Nc2csc([C@]34CO[C@@H](C)C[C@H]3CSC(N)=N4)n2)no1 [Example 62, N-{2-[(4aR,6S,8aR)-2-amino-6-methyl-4,4a,5,6-tetrahydropyrano[3,4-d][1,3]thiazin-8a(8H)-yl]-1,3-thiazol-4-yl}-5-(2-methylpropyl)-1,2-oxazole-3-carboxamide, trifluoroacetate salt]",9690 nM
3,"C[C@H]1C[C@H]2CSC(N)=N[C@@]2(c2nc(NC(=O)c3cnn(C(F)F)c3)cs2)CO1 [Example 83, N-{2-[(4aR,6S,8aR)-2-amino-6-methyl-4,4a,5,6-tetrahydropyrano[3,4-d][1,3]thiazin-8a(8H)-yl]-1,3-thiazol-4-yl}-1-(difluoromethyl)-1H-pyrazole-4-carboxamide]",671 nM
4,"C[C@H]1C[C@H]2CSC(N)=N[C@@]2(c2nc(NC(=O)c3ccon3)cs2)CO1 [Example 77, N-{2-[(4aR,6S,8aR)-2-amino-6-methyl-4,4a,5,6-tetrahydropyrano[3,4-d][1,3]thiazin-8a(8H)-yl]-1,3-thiazol-4-yl}-1,2-oxazole-3-carboxamide, trifluoroacetate salt]",777 nM
5,"Cc1cc(C(=O)Nc2csc([C@]34CO[C@@H](C)C[C@H]3CSC(N)=N4)n2)on1 [Example 67, N-{2-[(4aR,6S,8aR)-2-amino-6-methyl-4,4a,5,6-tetrahydropyrano[3,4-d][1,3]thiazin-8a(8H)-yl]-1,3-thiazol-4-yl}-3-methyl-1,2-oxazole-5-carboxamide, trifluoroacetate salt]",5040 nM
6,"COCc1nc(C(=O)Nc2csc([C@]34CO[C@@H](C)C[C@H]3CSC(N)=N4)n2)co1 [Example 90, N-{2-[(4aR,6S,8aR)-2-amino-6-methyl-4,4a,5,6-tetrahydropyrano[3,4-d][1,3]thiazin-8a(8H)-yl]-1,3-thiazol-4-yl}-2-(methoxymethyl)-1,3-oxazole-4-carboxamide]",175 nM
7,"CCn1cc(C(=O)Nc2csc([C@]34CO[C@@H](C)C[C@H]3CSC(N)=N4)n2)cn1 [Example 72, N-{2-[(4aR,6S,8aR)-2-amino-6-methyl-4,4a,5,6-tetrahydropyrano[3,4-d][1,3]thiazin-8a(8H)-yl]-1,3-thiazol-4-yl}-1-ethyl-1H-pyrazole-4-carboxamide, trifluoroacetate salt]",7480 nM
8,"C[C@H]1C[C@H]2CSC(N)=N[C@@]2(c2nc(NC(=O)c3cn(C)nc3C(F)(F)F)cs2)CO1 [Example 60, N-{2-[(4aR,6S,8aR)-2-amino-6-methyl-4,4a,5,6-tetrahydropyrano[3,4-d][1,3]thiazin-8a(8H)-yl]-1,3-thiazol-4-yl}-1-methyl-3-(trifluoromethyl)-1H-pyrazole-4-carboxamide, trifluoroacetate salt]",3840 nM
9,"C[C@H]1C[C@H]2CSC(N)=N[C@@]2(c2nc(NC(=O)c3cnc(OCC(F)F)cn3)cs2)CO1 [Example 12, N-{2-[(4aR,6S,8aR)-2-amino-6-methyl-4,4a,5,6-tetrahydropyrano[3,4-d][1,3]thiazin-8a(8H)-yl]-1,3-thiazol-4-yl}-5-(2,2-difluoroethoxy)pyrazine-2-carboxamide]",280 nM
10,"C[C@H]1C[C@H]2CSC(N)=N[C@@]2(c2nc(NC(=O)C3(C#N)CC3)cs2)CO1 [Example 106, N-{2-[(4aR,6S,8aR)-2-amino-6-methyl-4,4a,5,6-tetrahydropyrano[3,4-d][1,3]thiazin-8a(8H)-yl]-1,3-thiazol-4-yl}-1-cyanocyclopropanecarboxamide]",348 nM
11,"C[C@H]1C[C@H]2CSC(N)=N[C@@]2(c2nc(NC(=O)c3cnc(C4CC4)cn3)cs2)CO1 [Example 82, N-{2-[(4aR,6S,8aR)-2-amino-6-methyl-4,4a,5,6-tetrahydropyrano[3,4-d][1,3]thiazin-8a(8H)-yl]-1,3-thiazol-4-yl}-5-cyclopropylpyrazine-2-carboxamide, hydrochloride salt]",1080 nM
12,"C[C@H]1C[C@H]2CSC(N)=N[C@@]2(c2nc(NC(=O)c3cn(C)cn3)cs2)CO1 [Example 75, N-{2-[(4aR,6S,8aR)-2-amino-6-methyl-4,4a,5,6-tetrahydropyrano[3,4-d][1,3]thiazin-8a(8H)-yl]-1,3-thiazol-4-yl}-1-methyl-1H-imidazole-4-carboxamide, trifluoroacetate salt]",18200 nM
13,"CC(C)Cc1cc(C(=O)Nc2csc([C@]34CO[C@@H](C)C[C@H]3CSC(N)=N4)n2)nn1C [Example 65, N-{2-[(4aR,6S,8aR)-2-amino-6-methyl-4,4a,5,6-tetrahydropyrano[3,4-d][1,3]thiazin-8a(8H)-yl]-1,3-thiazol-4-yl}-1-methyl-5-(2-methylpropyl)-1H-pyrazole-3-carboxamide, trifluoroacetate salt]",51000 nM

# Next, values leading:
row,IC50,SMILES
1,34100 nM,"C[C@H]1C[C@H]2CSC(N)=N[C@@]2(c2nc(NC(=O)c3cn(C4CCC4)cn3)cs2)CO1 [Example 33, N-{2-[(4aR,6S,8aR)-2-amino-6-methyl-4,4a,5,6-tetrahydropyrano[3,4-d][1,3]thiazin-8a(8H)-yl]-1,3-thiazol-4-yl}-1-cyclobutyl-1H-imidazole-4-carboxamide]"
2,28100 nM,"C[C@H]1C[C@H]2CSC(N)=N[C@@]2(c2nc(NC(=O)c3cn(C)nn3)cs2)CO1 [Example 76, N-{2-[(4aR,6S,8aR)-2-amino-6-methyl-4,4a,5,6-tetrahydropyrano[3,4-d][1,3]thiazin-8a(8H)-yl]-1,3-thiazol-4-yl}-1-methyl-1H-1,2,3-triazole-4-carboxamide, trifluoroacetate salt]"
3,10400 nM,"CC(C)c1cc(C(=O)Nc2csc([C@]34CO[C@@H](C)C[C@H]3CSC(N)=N4)n2)n(C)n1 [Example 70, N-{2-[(4aR,6S,8aR)-2-amino-6-methyl-4,4a,5,6-tetrahydropyrano[3,4-d][1,3]thiazin-8a(8H)-yl]-1,3-thiazol-4-yl}-1-methyl-3-(propan-2-yl)-1H-pyrazole-5-carboxamide, trifluoroacetate salt]"
4,5860 nM,"COCc1cc(C(=O)Nc2csc([C@]34CO[C@@H](C)C[C@H]3CSC(N)=N4)n2)no1 [Example 35, N-{2-[(4aR,6S,8aR)-2-amino-6-methyl-4,4a,5,6-tetrahydropyrano[3,4-d][1,3]thiazin-8a(8H)-yl]-1,3-thiazol-4-yl}-5-(methoxymethyl)-1,2-oxazole-3-carboxamide]"
5,1000 nM,"C[C@H]1C[C@H]2CSC(N)=N[C@@]2(c2nc(NC(=O)c3cc4ccccn4n3)cs2)CO1 [Example 23, N-{2-[(4aR,6S,8aR)-2-amino-6-methyl-4,4a,5,6-tetrahydropyrano[3,4-d][1,3]thiazin-8a(8H)-yl]-1,3-thiazol-4-yl}pyrazolo[1,5-a]pyridine-2-carboxamide]"
6,282 nM,"COCC(F)(F)c1ccc(C(=O)Nc2csc([C@]34CO[C@@H](C)C[C@H]3CSC(N)=N4)n2)nc1 [Example 103, N-{2-[(4aR,6S,8aR)-2-amino-6-methyl-4,4a,5,6-tetrahydropyrano[3,4-d][1,3]thiazin-8a(8H)-yl]-1,3-thiazol-4-yl}-5-(1,1-difluoro-2-methoxyethyl)pyridine-2-carboxamide]"
7,189 nM,"C[C@H]1C[C@H]2CSC(N)=N[C@@]2(c2nc(NC(=O)c3ccc(F)cn3)cs2)CO1 [Example 9, N-{2-[(4aR,6S,8aR)-2-amino-6-methyl-4,4a,5,6-tetrahydropyrano[3,4-d][1,3]thiazin-8a(8H)-yl]-1,3-thiazol-4-yl}-5-fluoropyridine-2-carboxamide]"
8,153 nM,"C[C@H]1C[C@H]2CSC(N)=N[C@@]2(c2nc(NC(=O)c3ncc(F)cc3F)cs2)CO1 [Example 18, N-{2-[(4aR,6S,8aR)-2-amino-6-methyl-4,4a,5,6-tetrahydropyrano[3,4-d][1,3]thiazin-8a(8H)-yl]-1,3-thiazol-4-yl}-3,5-difluoropyridine-2-carboxamide]"
9,108 nM,"C[C@H]1C[C@H]2CSC(N)=N[C@@]2(c2nc(NC(=O)c3ccc(OC(F)(F)F)cn3)cs2)CO1 [Example 20, N-{2-[(4aR,6S,8aR)-2-amino-6-methyl-4,4a,5,6-tetrahydropyrano[3,4-d][1,3]thiazin-8a(8H)-yl]-1,3-thiazol-4-yl}-5-(trifluoromethoxy)pyridine-2-carboxamide]"
10,74 nM,"C[C@H]1C[C@H]2CSC(N)=N[C@@]2(c2nc(NC(=O)c3ccc(C(F)F)cn3)cs2)CO1 [Example 25, N-{2-[(4aR,6S,8aR)-2-amino-6-methyl-4,4a,5,6-tetrahydropyrano[3,4-d][1,3]thiazin-8a(8H)-yl]-1,3-thiazol-4-yl}-5-(difluoromethyl)pyridine-2-carboxamide]"
11,54 nM,"C[C@H]1C[C@H]2CSC(N)=N[C@@]2(c2nc(NC(=O)c3ccc(C(F)(F)F)cn3)cs2)CO1 [Example 17, N-{2-[(4aR,6S,8aR)-2-amino-6-methyl-4,4a,5,6-tetrahydropyrano[3,4-d][1,3]thiazin-8a(8H)-yl]-1,3-thiazol-4-yl}-5-(trifluoromethyl)pyridine-2-carboxamide]"

# Same assay, conditions: read-out: BACE1 Cell-free Assay IC50
row,SMILES,IC50
1,"C[C@H]1C[C@H]2CSC(N)=N[C@@]2(c2nc(NC(=O)c3ccc(F)cc3)cs2)CO1 [Example 14, N-{2-[(4aR,6S,8aR)-2-amino-6-methyl-4,4a,5,6-tetrahydropyrano[3,4-d][1,3]thiazin-8a(8H)-yl]-1,3-thiazol-4-yl}-4-fluorobenzamide, formate salt]",866 nM
